Results: US20240226018A1, “METHOD FOR COATING PHARMACEUTICAL SUBSTRATES” (Applied Materials, Inc., priority 2012, published 2024)

Experiment: Tableting study: compression forces and crushing strength of tablets (eccentric tableting machine, Scleuninger-E apparatus)
Assay type: physicochemical
Details: tablets of target weight 300 mg, flat-faced 9 mm punches, die wall lubricated with 5% (w/V) magnesium stearate in acetone; upper punch force differs per material (Table 1)
Procedure: The material obtained from Example 1 was tableted using an instrumented eccentric tableting machine (Korsch EK-0, Erweka Apparatebau, Heusenstamm, Germany) Flat-faced 9 mm punches were used and the die wall was lubricated using 5% (w/V) magnesium stearate in acetone before each compression. The target weights of tablets were 300 mg. Compression forces during the compression process were measured and the crushing strength of each tablet was measured using Scleuninger-E apparatus (Switzerland) (Table 1).

**Q.** Which Crushing strength does the source give for `CC(=O)Nc1ccc(O)cc1` [Neat paracetamol, paracetamol] here?
**A.** The Crushing strength was “No tablet, no measurable”.
